Laboratory results taken from patent US20230255864A1, “NOVEL COMPOSITIONS COMBINING HEMP DERIVATIVES AND AT LEAST ONE PEPTIDE AND USE THEREOF” (FRANCE COSMEPHYL-LAB, priority 2020, published 2023).

Experiments:
[1] = test system: RAW 267.4 murine macrophages; assay: Cell viability of murine macrophages (WST-1 mitochondrial respiration), in parallel with NO release; assay type: cell-based; settings: Mus musculus, RAW267.4; non-linear regression of 3 series of experiments; positive control
Experimental: (§1) MURINS RAW 267.4 Macrophage cell line (Sigma-Aldrich, No. P6110401, Lot. 091006), low number of passages (less than 50).
(§2) Complete medium: DMEM with stabilized L-glutamine (Dulbecco's Minimum Essential Medium, PAN BIOTECH. Lot 974251) supplemented with Penicillin 100 IU/ml and streptomycin 100 μg/m1 (PAN BIOTECH, Lot 225614), and 10% inactivated calf serum (PAN BIOTECH, Lot P460518), pH 7.2, freshly prepared, stored for less than 3 weeks.
(§3) Cannabidiol (CBD) is diluted in DMSO (10 mg/mL storage solution), and subjected to an ultrasonic bath for 20 minutes. The Neutrazen™ solution is diluted in PBS (Phosphate buffer saline, Sigma-Aldrich).
(§4) RAW 267.4 murine macrophages were inoculated into 48-well tissue culture plates at a concentration of 1.10^5 cells/ml (200 μl/well) and incubated for 24 hours at 37° C. (5% CO2).
(§5) At the end of the incubation period, the culture medium was replaced with 200 μl of medium containing the appropriate concentrations of the material to be tested, and the cells were incubated at 37° C. (5% CO2) for one hour.
(§6) At the end of the incubation period, pro-inflammatory E. coli LPS was added to the cell cultures (1 μg/ml. Then the cells were incubated at 37° C. (5% CO2) for 24 hours.
In parallel with the evaluation of the release of NO, the cell viability was measured to validate the tests. Vital Stain Reagent WST-1 was used to measure cellular mitochondrial respiration. For this, the culture medium was decanted and 100 μl of WST-1 reagent ( 1/10 dilution) were added to each well. After an incubation period of 30 min at 37° C. (5% CO2), the Optical Density (OD) of each well was read at a wavelength of 450 nm by an Infinite M200 Pro fluorescence-luminescence reader (TECAN). The results obtained for the wells treated with the test material were compared with those of the untreated control wells (DMSO, 100% viability) and converted into percentage values.
Inhibition of NO release and inhibition of cell viability were expressed as a percentage relative to the negative controls: […]
(§7) The concentrations of test material causing a 50% decrease in NO release (IC50 (NO release)) and a 50% decrease in cell viability (IC50 (cell viability)) respectively were calculated using TableCurve software Version 2.0.
Analysis of the anti-inflammatory activity and of the cell viability of the cannabidiol/palmitoyl tripeptide-8 (Neutrazen™) association in a mixture by isobologram analysis. For each concentration of Neutrazen™ (0.01, 0.025, 0.05 and 0.1%), different concentrations of CBD are tested (0.01, 0.025, 0.05, 0.1, 0.25, 0.5, 1 and 2.5%) to determine both the production of NO and cell viability.
The results obtained with the different mixtures of CBD and Neutrazen™ made it possible to calculate the pairs of concentrations corresponding to a 50% reduction in the production of NO and a 50% reduction in cell viability.

[2] = test system: murine macrophages (RAW 267.4 cell line) stimulated with LPS from E. coli; assay: In vitro anti-inflammatory test: inhibition of NO production in LPS-stimulated murine macrophages (Griess reaction); assay type: cell-based
Excerpt: Low-grade inflammation is strongly implicated in degenerative processes in human skin such as photoaging and atopy. The reduction of low-intensity inflammatory reactions by topical products may be necessary in the event of cutaneous aggression, to obtain optimal healing and restore the physiological balance of human skin. In order to identify new anti-inflammatory candidates, an in vitro anti-inflammatory test was developed with a murine cell line: the murine macrophage test RAW 267.4. This test was used to monitor the inhibitory effects of chemical compounds or natural extracts on the low-intensity inflammatory cascade leading to overproduction of nitrogen oxide (NO) in the endothelial wall of blood vessels.
The study was carried out to evaluate the ability of cannabidiol, palmitoyl tripeptide-8 (active ingredient in Neutrazen™), and their mixture to inhibit the pro-inflammatory cascade leading to the production of NO in murine macrophages stimulated by liposaccharides (LPS).
The in vitro anti-inflammatory test is based on the ability of murine macrophages to generate a strong inflammatory response when stimulated by antigens such as LPS. Immobilized murine macrophages (RAW 267.4 cell line) are stimulated with LPS from E. coli and exposed for 24 hours. At the end of the incubation period, the production of NO is evaluated indirectly by measuring the accumulation of nitrite/nitrate, stable final products of the oxidation of NO, in the culture medium using a method spectrophotometric based on the Griess reaction.
as §1, §2, §3
The negative control: DMSO 1% The positive control: Dexamethasone (Sigma-Aldrich) 1-5-10-50-100 μM.
as §4, §5, §6
The amount of NO released was measured in the culture supernatant by the Griess reaction. 100 μl of the supernatants were transferred into the wells of a 96-well tissue culture plate, and modified Griess reagent (SIGMA-ALDRICH) were added to each well. After a period of 15 min at room temperature, the Optical Density (OD) of each well was read at a wavelength of 540 nm by an Infinite M200 Pro fluorescence-luminescence reader (TECAN).
as §7
The anti-inflammatory ratio corresponds to the ratio between anti-inflammatory activity and toxicity. It is expressed as follows: […]
Analysis of the anti-inflammatory activity and of the cell viability of the cannabidiol/palmitoyl tripeptide-8 (Neutrazen™) association in a mixture by isobologram analysis.

IC50 ([2]; Mus musculus, RAW267.4, non-linear regression of 3 series of experiments, positive control, read-out: IC50-NO release): 2.98 µM
SMILES: C[C@@H]1C[C@H]2[C@@H]3CCC4=CC(=O)C=C[C@]4(C)[C@@]3(F)[C@@H](O)C[C@]2(C)[C@@]1(O)C(=O)CO [Dexamethasone]
IC50 [1]: 193 ± 4.25 µM | Anti-inflammatory ratio ([2]; ratio between anti-inflammatory activity and toxicity (IC50 NO release and IC50 cell viability)): 64.65
